Measurements as given in the NIST ThermoML archive (doi:10.1021/acs.jced.8b00132).
“And” between values parts separate entries of the source, which are not always exact repeats. Identical values can stand only once.

Conditions: Gas

O=C(C(F)(F)C(F)(F)F)C(F)(C(F)(F)F)C(F)(F)F [dodecafluoro-2-methylpentan-3-one]
Conditions	thermal conductivity
499.7 K, 3616 kPa, transient hot wire	0.03337 W/m/K
499.7 K, 4324 kPa, transient hot wire	0.03528 W/m/K
499.7 K, 5590 kPa, transient hot wire	0.03721 W/m/K
499.7 K, 35697 kPa, transient hot wire	0.05683 W/m/K
499.7 K, 50253 kPa, transient hot wire	0.06228 W/m/K
499.7 K, 50292 kPa, transient hot wire	0.06274 W/m/K
499.71 K, 3616 kPa, transient hot wire	0.03339 W/m/K
499.71 K, 25604 kPa, transient hot wire	0.05236 W/m/K
499.72 K, 3288 kPa, transient hot wire	0.03208 W/m/K
499.72 K, 4324 kPa, transient hot wire	0.03516 W/m/K
499.72 K, 18413 kPa, transient hot wire	0.04809 W/m/K
499.73 K, 643 kPa, hot wire	0.02734 W/m/K and 0.02744 W/m/K
499.73 K, 4855 kPa, transient hot wire	0.03606 W/m/K and 0.03623 W/m/K
499.73 K, 18416 kPa, transient hot wire	0.04833 W/m/K
499.73 K, 35665 kPa, transient hot wire	0.05687 W/m/K
499.74 K, 3288 kPa, transient hot wire	0.03222 W/m/K
499.74 K, 3937 kPa, transient hot wire	0.03429 W/m/K
499.74 K, 50254 kPa, transient hot wire	0.06235 W/m/K
499.75 K, 418 kPa, hot wire	0.02717 W/m/K
499.75 K, 2128 kPa, transient hot wire	0.02829 W/m/K
499.75 K, 35673 kPa, transient hot wire	0.05679 W/m/K
499.75 K, 35689 kPa, transient hot wire	0.05686 W/m/K
499.75 K, 50278 kPa, transient hot wire	0.06281 W/m/K
499.76 K, 417 kPa, hot wire	0.02687 W/m/K
499.76 K, 1595 kPa, transient hot wire	0.02727 W/m/K
499.76 K, 5594 kPa, transient hot wire	0.03739 W/m/K
499.76 K, 25601 kPa, transient hot wire	0.05218 W/m/K
499.76 K, 25602 kPa, transient hot wire	0.05226 W/m/K
499.76 K, 50255 kPa, transient hot wire	0.06232 W/m/K
499.77 K, 1595 kPa, transient hot wire	0.0273 W/m/K
499.77 K, 4324 kPa, transient hot wire	0.03524 W/m/K
499.78 K, 5592 kPa, transient hot wire	0.03734 W/m/K
499.79 K, 60 kPa, hot wire	0.02624 W/m/K
499.79 K, 218 kPa, hot wire	0.02627 W/m/K
499.79 K, 2953 kPa, transient hot wire	0.03092 W/m/K
499.79 K, 3618 kPa, transient hot wire	0.03355 W/m/K
499.79 K, 4324 kPa, transient hot wire	0.03534 W/m/K
499.79 K, 35664 kPa, transient hot wire	0.05692 W/m/K
499.79 K, 50251 kPa, transient hot wire	0.06211 W/m/K
499.8 K, 60 kPa, hot wire	0.02618 W/m/K
499.8 K, 217 kPa, hot wire	0.02613 W/m/K
499.8 K, 869 kPa, transient hot wire	0.02693 W/m/K and 0.02695 W/m/K
499.8 K, 2952 kPa, transient hot wire	0.03103 W/m/K
499.8 K, 3936 kPa, transient hot wire	0.03437 W/m/K
499.8 K, 4855 kPa, transient hot wire	0.03629 W/m/K
499.81 K, 2569 kPa, transient hot wire	0.0294 W/m/K
499.81 K, 3287 kPa, transient hot wire	0.0325 W/m/K and 0.03233 W/m/K
499.81 K, 3936 kPa, transient hot wire	0.03445 W/m/K
499.81 K, 35680 kPa, transient hot wire	0.05678 W/m/K
499.81 K, 35689 kPa, transient hot wire	0.05675 W/m/K
499.81 K, 50253 kPa, transient hot wire	0.06239 W/m/K
499.82 K, 2568 kPa, transient hot wire	0.02959 W/m/K
499.82 K, 35681 kPa, transient hot wire	0.05686 W/m/K
499.83 K, 646 kPa, transient hot wire	0.02724 W/m/K
499.83 K, 647 kPa, transient hot wire	0.02739 W/m/K
499.83 K, 13400 kPa, transient hot wire	0.04508 W/m/K
499.84 K, 5595 kPa, transient hot wire	0.03734 W/m/K
499.84 K, 13403 kPa, transient hot wire	0.04494 W/m/K
499.84 K, 18418 kPa, transient hot wire	0.04825 W/m/K
499.85 K, 3618 kPa, transient hot wire	0.0337 W/m/K
499.85 K, 4324 kPa, transient hot wire	0.03554 W/m/K
499.85 K, 25604 kPa, transient hot wire	0.05216 W/m/K
499.85 K, 35654 kPa, transient hot wire	0.05672 W/m/K
499.86 K, 4325 kPa, transient hot wire	0.03565 W/m/K
499.87 K, 5595 kPa, transient hot wire	0.03732 W/m/K
499.87 K, 35670 kPa, transient hot wire	0.05702 W/m/K
499.88 K, 1594 kPa, transient hot wire	0.02746 W/m/K
499.88 K, 1595 kPa, transient hot wire	0.02725 W/m/K
499.88 K, 2128 kPa, transient hot wire	0.02824 W/m/K
499.88 K, 2952 kPa, transient hot wire	0.03099 W/m/K
499.88 K, 3619 kPa, transient hot wire	0.03371 W/m/K
499.88 K, 3936 kPa, transient hot wire	0.03462 W/m/K
499.89 K, 422 kPa, transient hot wire	0.02757 W/m/K
499.89 K, 2128 kPa, transient hot wire	0.02826 W/m/K
499.89 K, 2952 kPa, transient hot wire	0.03116 W/m/K
499.89 K, 3936 kPa, transient hot wire	0.03474 W/m/K
499.89 K, 35669 kPa, transient hot wire	0.05673 W/m/K
499.9 K, 421 kPa, transient hot wire	0.02748 W/m/K
499.91 K, 2567 kPa, transient hot wire	0.02946 W/m/K
499.91 K, 3287 kPa, transient hot wire	0.03278 W/m/K
499.91 K, 10172 kPa, transient hot wire	0.0425 W/m/K
499.91 K, 25600 kPa, transient hot wire	0.05221 W/m/K
499.92 K, 6555 kPa, transient hot wire	0.03863 W/m/K
499.92 K, 10173 kPa, transient hot wire	0.0424 W/m/K
499.92 K, 25604 kPa, transient hot wire	0.05225 W/m/K
499.93 K, 870 kPa, transient hot wire	0.02694 W/m/K
499.93 K, 6552 kPa, transient hot wire	0.0387 W/m/K
499.93 K, 13400 kPa, transient hot wire	0.04487 W/m/K
499.93 K, 18421 kPa, transient hot wire	0.04818 W/m/K
499.94 K, 869 kPa, transient hot wire	0.0272 W/m/K
499.94 K, 18421 kPa, transient hot wire	0.0482 W/m/K
499.95 K, 5597 kPa, transient hot wire	0.03741 W/m/K
499.96 K, 2952 kPa, transient hot wire	0.03132 W/m/K
499.96 K, 3620 kPa, transient hot wire	0.0341 W/m/K
499.97 K, 25600 kPa, transient hot wire	0.05221 W/m/K
499.97 K, 25604 kPa, transient hot wire	0.05228 W/m/K
499.98 K, 645 kPa, transient hot wire	0.02717 W/m/K
499.99 K, 10173 kPa, transient hot wire	0.04254 W/m/K
499.99 K, 13400 kPa, transient hot wire	0.04504 W/m/K
499.99 K, 13402 kPa, transient hot wire	0.04506 W/m/K
499.99 K, 18421 kPa, transient hot wire	0.04841 W/m/K
500 K, 646 kPa, transient hot wire	0.02728 W/m/K
500 K, 2952 kPa, transient hot wire	0.03119 W/m/K
500 K, 3286 kPa, transient hot wire	0.03306 W/m/K and 0.03284 W/m/K
500 K, 6554 kPa, transient hot wire	0.03863 W/m/K
500 K, 6555 kPa, transient hot wire	0.03872 W/m/K
500 K, 8108 kPa, transient hot wire	0.04046 W/m/K
500 K, 10172 kPa, transient hot wire	0.04249 W/m/K
500.01 K, 1594 kPa, transient hot wire	0.02714 W/m/K
500.01 K, 2129 kPa, transient hot wire	0.02838 W/m/K
500.02 K, 1594 kPa, transient hot wire	0.02737 W/m/K
500.02 K, 2129 kPa, transient hot wire	0.0285 W/m/K
500.02 K, 2565 kPa, transient hot wire	0.02947 W/m/K
500.02 K, 2566 kPa, transient hot wire	0.0295 W/m/K
500.02 K, 8108 kPa, transient hot wire	0.04041 W/m/K
500.02 K, 18425 kPa, transient hot wire	0.0483 W/m/K
500.05 K, 419 kPa, transient hot wire	0.02753 W/m/K
500.06 K, 419 kPa, transient hot wire	0.02752 W/m/K
500.07 K, 10171 kPa, transient hot wire	0.04243 W/m/K
500.08 K, 870 kPa, transient hot wire	0.02705 W/m/K and 0.02701 W/m/K
500.08 K, 6554 kPa, transient hot wire	0.03889 W/m/K and 0.03865 W/m/K
500.08 K, 8107 kPa, transient hot wire	0.04045 W/m/K
500.08 K, 18421 kPa, transient hot wire	0.04829 W/m/K
500.09 K, 2952 kPa, transient hot wire	0.03151 W/m/K
500.1 K, 2952 kPa, transient hot wire	0.03143 W/m/K
500.1 K, 8107 kPa, transient hot wire	0.04058 W/m/K
500.1 K, 13402 kPa, transient hot wire	0.04498 W/m/K
500.12 K, 644 kPa, transient hot wire	0.02715 W/m/K
500.13 K, 645 kPa, transient hot wire	0.02741 W/m/K
500.13 K, 1594 kPa, transient hot wire	0.02735 W/m/K
500.14 K, 2565 kPa, transient hot wire	0.0296 W/m/K
500.15 K, 1594 kPa, transient hot wire	0.02739 W/m/K
500.15 K, 10171 kPa, transient hot wire	0.04243 W/m/K
500.16 K, 419 kPa, transient hot wire	0.02764 W/m/K
500.16 K, 10174 kPa, transient hot wire	0.04246 W/m/K
500.16 K, 13402 kPa, transient hot wire	0.04495 W/m/K
500.17 K, 6553 kPa, transient hot wire	0.03885 W/m/K
500.17 K, 8107 kPa, transient hot wire	0.04052 W/m/K
500.17 K, 8287 kPa, transient hot wire	0.04057 W/m/K
500.17 K, 13401 kPa, transient hot wire	0.04512 W/m/K
500.18 K, 6551 kPa, transient hot wire	0.03865 W/m/K
500.18 K, 8108 kPa, transient hot wire	0.04052 W/m/K
500.18 K, 8283 kPa, transient hot wire	0.0406 W/m/K
500.2 K, 419 kPa, transient hot wire	0.02743 W/m/K
500.23 K, 871 kPa, transient hot wire	0.02696 W/m/K
500.24 K, 872 kPa, transient hot wire	0.02702 W/m/K
500.24 K, 2563 kPa, transient hot wire	0.02975 W/m/K and 0.02983 W/m/K
500.25 K, 6550 kPa, transient hot wire	0.0387 W/m/K
500.25 K, 10172 kPa, transient hot wire	0.04247 W/m/K
500.26 K, 6550 kPa, transient hot wire	0.0388 W/m/K
500.27 K, 8107 kPa, transient hot wire	0.04068 W/m/K and 0.04066 W/m/K
500.27 K, 8290 kPa, transient hot wire	0.04063 W/m/K
500.27 K, 8294 kPa, transient hot wire	0.04069 W/m/K
500.28 K, 643 kPa, transient hot wire	0.02732 W/m/K and 0.02714 W/m/K
500.33 K, 419 kPa, transient hot wire	0.02775 W/m/K
500.34 K, 418 kPa, transient hot wire	0.02786 W/m/K
500.35 K, 8106 kPa, transient hot wire	0.0405 W/m/K
500.36 K, 8300 kPa, transient hot wire	0.04074 W/m/K
500.37 K, 8107 kPa, transient hot wire	0.04059 W/m/K
500.4 K, 872 kPa, transient hot wire	0.02701 W/m/K
500.4 K, 874 kPa, transient hot wire	0.02698 W/m/K
500.43 K, 643 kPa, transient hot wire	0.02726 W/m/K
500.45 K, 643 kPa, transient hot wire	0.0272 W/m/K
500.46 K, 8304 kPa, transient hot wire	0.04072 W/m/K
500.46 K, 8307 kPa, transient hot wire	0.04066 W/m/K
500.48 K, 417 kPa, transient hot wire	0.02764 W/m/K
500.49 K, 417 kPa, transient hot wire	0.02771 W/m/K
500.58 K, 8309 kPa, transient hot wire	0.04075 W/m/K
